Earlier results on 1 compound are cited in patent US20030181501A1 (priority 2001, published 2003).

Each structure is given as a SMILES string.

The conditions of the series: Dionne (1999).

For `Cc1onc(-c2ccccc2)c1-c1ccc(S(N)(=O)=O)cc1` [Valdecoxib, 4-(5-methyl-3-phenyl-4-isoxazolyl)benzenesulfonamide], the Solubility in water result was “extremely low solubility in water”.
